Consider 4 compounds from ChEMBL document CHEMBL1201862, “PubChem BioAssay data set” (2004).

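How tested: cells in 96-well plates exposed to compound for 48 hours at five concentrations. GI50 = concentration required for 50% inhibition of growth.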 Activity calls are given as the source filed them. Cut-off read from the data, not from the text of the source: active = GI50 up to about 1.1 µM and inactive = higher.

Some test systems named below: A498; ACHN; SF-268; UO-31; NCI-H23; HOP-62; RPMI-8226; CCRF-CEM; OVCAR-3; HCC 2998; NCI-H226; KM12; U-251; PC-3; NCI/ADR-RES; TK-10; Hs-578T; NCI-H522; MDA-MB-435; MOLT-4.
Common to all, as to assay: inhibition of tumour cell growth, NCI panel, 48 h

On to `CN(O)C(=S)c1ccccc1`, for which the GI50 is 20200 nM (inactive) with A498; 4420 nM (inactive) with ACHN; 6430 nM (inactive) in the test on SF-268; 5350 nM (inactive) in the test with UO-31; 1910 nM (inactive) with NCI-H23; 11400 nM (inactive) in the test on HOP-62. Besides, the GI50 with RPMI-8226 is 325 nM (active); in the test with CCRF-CEM it was 105 nM (active); with OVCAR-3 it was 2450 nM (inactive); with HCC 2998 it was 6340 nM (inactive); with NCI-H226, 34200 nM (inactive); in the test on KM12 it was 5860 nM (inactive). For the same compound, the GI50 is 3180 nM (inactive) with U-251; 3230 nM (inactive) in the test with PC-3; 746 nM (active) in the test with NCI/ADR-RES; > 78200 nM (inactive) with TK-10; > 20200 nM (inactive) with Hs-578T; 94.4 nM (active) in the test with NCI-H522. The results for the GI50 in the test on MDA-MB-435 and with MOLT-4 were 3380 nM (inactive) and 325 nM (active), respectively.
For the compound `COc1cc2c(cc1OC)-c1cc3ccccc3c(=O)n1CCC2`, the GI50 was 6620 nM (inactive) in the test on A498; 13400 nM (inactive) in the test on ACHN; 13300 nM (inactive) in the test on SF-268; 13000 nM (inactive) in the test on UO-31; 19700 nM (inactive) in the test on NCI-H23; 12000 nM (inactive) in the test on HOP-62. In addition, the GI50 in the test on RPMI-8226 is 7910 nM (inactive); with CCRF-CEM, 6730 nM (inactive); with OVCAR-3, 15900 nM (inactive); with HCC 2998, 13700 nM (inactive); in the test with NCI-H226, 12600 nM (inactive); in the test on KM12 it was 8470 nM (inactive). Moreover, the GI50 is 6490 nM (inactive) with U-251; 8510 nM (inactive) in the test on PC-3; 5270 nM (inactive) in the test on NCI/ADR-RES; 16300 nM (inactive) with TK-10; 14800 nM (inactive) in the test on Hs-578T; 9250 nM (inactive) in the test on NCI-H522. For the same compound, the GI50 in the test on MDA-MB-435 is 5690 nM (inactive); with MOLT-4, 1890 nM (inactive).
`Cc1cc(C2(c3cc(C)c(O)c4ncccc34)OC(=O)c3ccccc32)c2cccnc2c1O`: the GI50 with A498 is 1470 nM (inactive); with ACHN, 6.62 nM (active); in the test with SF-268, 12.1 nM (active); with UO-31, 5.74 nM (active); with NCI-H23, 18.7 nM (active); in the test on HOP-62 it was 21.7 nM (active). Besides, the GI50 was 12 nM (active) in the test with RPMI-8226; 10 nM (active) with CCRF-CEM; 5.6 nM (active) with OVCAR-3; 46.8 nM (active) in the test with HCC 2998; 10 nM (active) in the test on NCI-H226; 66.8 nM (active) with KM12. Besides, the GI50 in the test with U-251 was 28.8 nM (active); in the test on PC-3 it was 265 nM (active); in the test on NCI/ADR-RES it was 34.4 nM (active); with TK-10 it was > 10000 nM (inactive); in the test on Hs-578T, 12.7 nM (active); with NCI-H522, 10 nM (active). Moreover, the GI50 in the test on MDA-MB-435 is 68.2 nM (active); in the test with MOLT-4, 522 nM (active).
In the case of `CC(=O)c1ccc(Nc2c3ccccc3nc3occc23)cc1`, the GI50 was 2320 nM (inactive) in the test with A498; < 10 nM (active) in the test with ACHN; < 10.5 nM (active) in the test on SF-268; 19.6 nM (active) in the test with UO-31; 175 nM (active) with NCI-H23; 12.7 nM (active) with HOP-62. Further, the GI50 in the test on RPMI-8226 was < 10 nM (active); in the test on CCRF-CEM, < 10 nM (active); with OVCAR-3, < 10 nM (active); in the test with HCC 2998, 49.8 nM (active); with NCI-H226, 168 nM (active); in the test with KM12, < 10 nM (active). Also, the GI50 was < 12.4 nM (active) in the test with U-251; < 10 nM (active) with PC-3; < 10 nM (active) with NCI/ADR-RES; 37.1 nM (active) with TK-10; 15.2 nM (active) in the test with Hs-578T; < 10 nM (active) in the test with NCI-H522. The GI50 in the test with MDA-MB-435 and in the test on MOLT-4 was < 10 nM (active) in each case.
